Test systems include SK-MEL-5 melanoma; CCRF-CEM leukemia; HL-60(TB) leukemia; ACHN renal; SK-OV-3 ovarian; COLO 205 colon; SR leukemia; OVCAR-5 ovarian; RPMI-8226 leukemia; NCI/ADR-RES ovarian.
Common to all, as to test: NCI anticancer screen, dose series, 48 h

The values below come from PubChem BioAssay (NCI).

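Growth conditions: 96-well plates. Treatment: test compound, 48 hours, 5 concentrations. Analysis: linear interpolation between bracketing concentrations; unreached endpoints set to highest concentration. GI50 marks 50% less growth. TGI: total growth inhibition.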

For `C[C@@]1(C(=O)O)CCC[C@]2(C)C1CC[C@@]13C[C@@](O)(CC[C@]12O)[C@@]1(CO1)C3` (stereo partly specified), the GI50 in the experiment with SK-MEL-5 melanoma, in the experiment on CCRF-CEM leukemia, with HL-60(TB) leukemia, with ACHN renal, in the experiment on SK-OV-3 ovarian and in the experiment on COLO 205 colon was above 100 µM throughout. Also, the GI50 with OVCAR-5 ovarian, in the experiment on RPMI-8226 leukemia and in the experiment with NCI/ADR-RES ovarian was above 100 µM in each case. The TGI with SK-MEL-5 melanoma, in the experiment with CCRF-CEM leukemia, with HL-60(TB) leukemia, in the experiment with ACHN renal, in the experiment with SK-OV-3 ovarian and in the experiment on COLO 205 colon was above 100 µM throughout. Further, the TGI in the experiment on SR leukemia, with OVCAR-5 ovarian, with RPMI-8226 leukemia and in the experiment on NCI/ADR-RES ovarian was above 100 µM in each case.
In the case of `NC(N)=NCC1CCCCCCN1` (stereo unspecified), the TGI with SK-MEL-5 melanoma, with CCRF-CEM leukemia, with HL-60(TB) leukemia, with ACHN renal, in the experiment on SK-OV-3 ovarian and in the experiment on COLO 205 colon was above 100 µM each time. For the same molecule, the TGI with SR leukemia, with OVCAR-5 ovarian, with RPMI-8226 leukemia and with NCI/ADR-RES ovarian was above 100 µM each time.
Take `O=C1/C=C/[C@@H](O)[C@@H]2C[C@@H](O)C[C@H]2/C=C/CCC[C@H](CCc2cccc3ccccc23)O1`: the GI50 in the experiment with SK-MEL-5 melanoma was 0.0171 µM; in the experiment with CCRF-CEM leukemia it was 0.136 µM; in the experiment on HL-60(TB) leukemia, 0.0923 µM; in the experiment with ACHN renal, 0.305 µM; in the experiment on SK-OV-3 ovarian, 0.064 µM; in the experiment with COLO 205 colon, 0.0659 µM. Moreover, the GI50 is 0.0353 µM with SR leukemia, 0.103 µM in the experiment with OVCAR-5 ovarian, 0.0847 µM with RPMI-8226 leukemia and 0.0389 µM in the experiment on NCI/ADR-RES ovarian. For the same molecule, the TGI came out at 0.0326 µM with SK-MEL-5 melanoma; 8.02 µM in the experiment with CCRF-CEM leukemia; 0.366 µM in the experiment with HL-60(TB) leukemia; 12.5 µM in the experiment on ACHN renal; 12 µM in the experiment with SK-OV-3 ovarian; 0.152 µM in the experiment with COLO 205 colon. The TGI with SR leukemia stood at 1.33 µM; in the experiment with OVCAR-5 ovarian it was 13.9 µM; in the experiment with RPMI-8226 leukemia, 2.73 µM; in the experiment on NCI/ADR-RES ovarian, 1.86 µM.
As to `C[C@H]1/C(=C/C(=O)OCCN(C)C)CC[C@H]2[C@H]1C(=O)C[C@H]1C(C)(C)[C@@H](O)CC[C@]21C`, the TGI in the experiment on SK-MEL-5 melanoma, with CCRF-CEM leukemia, in the experiment on HL-60(TB) leukemia, in the experiment with ACHN renal, with SK-OV-3 ovarian and with COLO 205 colon was above 100 µM each time. The TGI in the experiment with SR leukemia, in the experiment with OVCAR-5 ovarian, in the experiment with RPMI-8226 leukemia and with NCI/ADR-RES ovarian was above 100 µM in each case.
Turning to `CCCCCCCCCCCCCCCCCc1nccn1CCOCCO`, the GI50 in the experiment on SK-MEL-5 melanoma is 4.87 µg/mL; in the experiment on CCRF-CEM leukemia, 5.18 µg/mL; in the experiment on HL-60(TB) leukemia, 7.56 µg/mL; in the experiment on ACHN renal, 5.95 µg/mL; with SK-OV-3 ovarian it was 5.67 µg/mL; in the experiment with COLO 205 colon it was 6.07 µg/mL. Moreover, the GI50 in the experiment on SR leukemia is 4.93 µg/mL; in the experiment with OVCAR-5 ovarian it was 5.86 µg/mL; with RPMI-8226 leukemia, 3.87 µg/mL; in the experiment with NCI/ADR-RES ovarian, 20.4 µg/mL. Moreover, the TGI in the experiment on SK-MEL-5 melanoma stood at 9.61 µg/mL; with CCRF-CEM leukemia, 12.4 µg/mL; with HL-60(TB) leukemia, 15.2 µg/mL; in the experiment with ACHN renal it was 11.1 µg/mL; in the experiment on SK-OV-3 ovarian it was 10.8 µg/mL; with COLO 205 colon, 11.4 µg/mL. Moreover, the TGI with SR leukemia worked out at 11.9 µg/mL; with OVCAR-5 ovarian, 11.2 µg/mL; in the experiment with RPMI-8226 leukemia it was 10.9 µg/mL; in the experiment on NCI/ADR-RES ovarian, 37.5 µg/mL.
Regarding `O=C1/C(=C/c2ccccc2)CN(C(=O)C(Cl)Cl)C/C1=C\c1ccccc1`, the GI50 is 0.698 µM in the experiment on SK-MEL-5 melanoma; 0.152 µM in the experiment with CCRF-CEM leukemia; 0.36 µM in the experiment with HL-60(TB) leukemia; 0.438 µM in the experiment with ACHN renal; 1.77 µM with SK-OV-3 ovarian; 1.19 µM in the experiment with COLO 205 colon. For the same molecule, the GI50 was 0.11 µM in the experiment on SR leukemia, 1.06 µM in the experiment with OVCAR-5 ovarian, 0.0474 µM in the experiment with RPMI-8226 leukemia and 0.452 µM in the experiment on NCI/ADR-RES ovarian. The TGI in the experiment on SK-MEL-5 melanoma worked out at 1.94 µM; with HL-60(TB) leukemia, 2.04 µM; in the experiment with ACHN renal, 1.44 µM; in the experiment on SK-OV-3 ovarian it was 3.23 µM; in the experiment with COLO 205 colon it was 3.01 µM; with OVCAR-5 ovarian, 2.85 µM. For the same molecule, the TGI with RPMI-8226 leukemia was 0.278 µM; in the experiment with NCI/ADR-RES ovarian, 4.92 µM.
On to `COc1cc2c3cc1Oc1c(OC)c(OC)cc4c1C(=NCC4)Cc1ccc(cc1)Oc1cc(ccc1O)C[C@H]3N(C)CC2`, for which the TGI in the experiment with SK-MEL-5 melanoma is 24.6 µM; in the experiment on CCRF-CEM leukemia it was above 100 µM; in the experiment on HL-60(TB) leukemia, 96.5 µM; in the experiment with ACHN renal, 83.5 µM; in the experiment with SK-OV-3 ovarian it was above 100 µM; with COLO 205 colon, 26.3 µM. In addition, the TGI in the experiment with SR leukemia is 31.2 µM; with OVCAR-5 ovarian, above 100 µM; in the experiment with RPMI-8226 leukemia, 47.5 µM; in the experiment with NCI/ADR-RES ovarian it was 29.6 µM.
For `O=C(/C=C/c1ccc(Cl)cc1)c1ccccc(=O)c1O`, the TGI in the experiment on SK-MEL-5 melanoma is 4.93 µM; in the experiment on CCRF-CEM leukemia, 0.773 µM; with HL-60(TB) leukemia it was 2.04 µM; in the experiment with ACHN renal, 6.66 µM; in the experiment with SK-OV-3 ovarian it was 16.6 µM; with COLO 205 colon, 6.53 µM. Besides, the TGI was above 100 µM in the experiment on SR leukemia, 19.8 µM in the experiment with OVCAR-5 ovarian, 4.79 µM with RPMI-8226 leukemia and 2.42 µM in the experiment with NCI/ADR-RES ovarian.
Turning to `CC(=O)/C(=C/c1ccccc1)C(=O)CC(C)C`, the GI50 in the experiment with SK-MEL-5 melanoma was 13.5 µM; in the experiment with CCRF-CEM leukemia it was 3.96 µM; with HL-60(TB) leukemia, 22.1 µM; in the experiment with ACHN renal, 11.2 µM; in the experiment on SK-OV-3 ovarian it was 31.8 µM; in the experiment on COLO 205 colon it was 16.9 µM. Further, the GI50 is 2.46 µM with SR leukemia, 17.7 µM in the experiment on OVCAR-5 ovarian, 4.31 µM in the experiment on RPMI-8226 leukemia and 18.2 µM with NCI/ADR-RES ovarian. The TGI is 26.9 µM in the experiment on SK-MEL-5 melanoma; above 100 µM in the experiment with CCRF-CEM leukemia; 90.2 µM with HL-60(TB) leukemia; 26.3 µM in the experiment on ACHN renal; 99 µM in the experiment on SK-OV-3 ovarian; 35.5 µM in the experiment with COLO 205 colon. The TGI was 7.37 µM in the experiment with SR leukemia, 41.6 µM with OVCAR-5 ovarian, 98.2 µM in the experiment with RPMI-8226 leukemia and 58.9 µM in the experiment with NCI/ADR-RES ovarian.
Take `Cc1nc2c(c(N3CCCc4ccccc43)n1)CCC2`: the GI50 in the experiment with SK-MEL-5 melanoma, in the experiment on CCRF-CEM leukemia, in the experiment with HL-60(TB) leukemia, in the experiment with ACHN renal, in the experiment with SK-OV-3 ovarian and in the experiment on COLO 205 colon was below 0.01 µM throughout. Besides, the GI50 in the experiment with SR leukemia was below 0.01 µM; with OVCAR-5 ovarian, 1.7 µM; with RPMI-8226 leukemia, below 0.01 µM; in the experiment on NCI/ADR-RES ovarian, below 0.01 µM. The TGI in the experiment with SK-MEL-5 melanoma is 0.0233 µM; in the experiment on CCRF-CEM leukemia it was above 100 µM; in the experiment on ACHN renal, above 100 µM; in the experiment on SK-OV-3 ovarian, above 100 µM; in the experiment with COLO 205 colon, 0.0111 µM; in the experiment with SR leukemia, 13.1 µM. In addition, the TGI was above 100 µM in the experiment with OVCAR-5 ovarian, 3.47 µM in the experiment with RPMI-8226 leukemia and 0.364 µM in the experiment with NCI/ADR-RES ovarian.
With `Cc1c(O)c(N=Nc2nc3ccccc3s2)c2ccccc2c1O`, the GI50 is 8.85 µM with SK-MEL-5 melanoma; above 50 µM with CCRF-CEM leukemia; above 50 µM in the experiment with HL-60(TB) leukemia; 19.4 µM in the experiment on ACHN renal; 30.1 µM in the experiment on SK-OV-3 ovarian; 21.4 µM in the experiment on COLO 205 colon. Also, the GI50 in the experiment on SR leukemia was above 50 µM; in the experiment with OVCAR-5 ovarian it was above 50 µM; in the experiment with RPMI-8226 leukemia, 23.6 µM; with NCI/ADR-RES ovarian it was 34.3 µM. The TGI in the experiment on SK-MEL-5 melanoma was 21.2 µM; in the experiment on CCRF-CEM leukemia it was above 50 µM; in the experiment on HL-60(TB) leukemia, above 50 µM; with ACHN renal it was above 50 µM; in the experiment on SK-OV-3 ovarian, above 50 µM; in the experiment with COLO 205 colon, above 50 µM. Moreover, the TGI with SR leukemia, in the experiment on OVCAR-5 ovarian, with RPMI-8226 leukemia and in the experiment with NCI/ADR-RES ovarian was above 50 µM each time.
